Read-outs that look alike come from different tables or passages of the source.
Assays:
[1] = biological target: T1, α4β2 subtype of nicotinic acetylcholine receptors (Rattus norvegicus, UniProt P09483+P12390); assay: Binding assays at α4β2 subtype of nicotinic acetylcholine receptors ([3H]-cytisine, rat brain membrane)
T1 construct: examined using rat brain membrane obtained from whole homogenized brain; from tissue; host or cells: whole brain of Fischer-344 male rats, membrane pellet
From the text: (§1) Methods for evaluating binding capabilities of the compounds at nicotinic acetylcholine receptors are different by subtypes of receptors. Binding capabilities of the compounds at α4β2 nicotinic acetylcholine receptors are examined using rat brain membrane obtained from whole homogenized brain, and determining the inhibiting rate of the compounds against [^3H]-cytisine binding to said brain membrane. Furthermore, the binding capabilities of the compounds at α1β1γδ nicotinic acetylcholine receptors are examined using homogenized rat muscle, and determining the inhibiting rate of the compounds against [^3H]-α-bungarotoxin binding to said muscle homogenate.
Binding assays at α4β2 Subtype of Nicotinic Acetylcholine Receptors
(1) Preparation of Rat Brain Membrane Containing α4β2 Subtype of Nicotinic Acetylcholine Receptors
Rats were housed in the breeding cage controlled of the room temperature at 23±1° C., and the humidity of 55±5% for 1 to 4 weeks. Rats (3 to 4 rats per a cage) were housed with lights on for 12 hours daily (from 7:00 to 19:00), and allowed free access to food and water.
Preparation of rat brain membrane containing α4β2 subtype of nicotinic acetylcholine receptors was performed as follow. That is, rat brains were isolated just after sacrificed by decapitation, washed with ice-cooled saline solution and then frozen at −80° C. with liquid nitrogen and stored till using. After thawing the frozen brain, the brain was homogenized in 10 volumes of ice-cooled buffer solution (50 mM of Tris-HCl, 120 mM of NaCl, 5 mM of KCl, 1 mM of MgCl2, 2mM of CaCl2; pH 7.4; 4° C.) using homogenizer (HG30, Hitachi Kohki Ltd.) for 30 seconds, and the homogenate were centrifuged under 1,000×G for 10 minutes at 4° C. The resulting supernatant was separated and the pellet was homogenized again with half volume of aforementioned prior buffer solution and centrifuged under the same conditions. Combined supernatant was further centrifuged under 40,000×G for 20 minutes at 4° C. The pellet was suspended in buffer solution and used for binding assays at receptors.
(2) Experiments of α4β2 Subtype of Nicotinic Acetylcholine Receptors Binding
Suspensions of membrane pellets containing 400-600 μg of protein were added to test tubes containing test compounds and [^3H]-cytisine (2 nM) in a final volume of 200 μl and incubated for 75 minutes in ice-cooled bath. The samples were isolated by vacuum filtration onto Whatman GF/B filters, which were prerinsed with 0.5% polyethylenimine just prior to sample filtration, using Brandel multi manifold cell harvester. The filters were rapidly washed with buffer solution (3×1 ml). The filters were counted in 3 ml of clearsol I (Nacalai Tesque Inc.).
Analyses of the experimental results were conducted using the Accufit Competition Program (Beckman Ltd.).

[2] = biological target: T2, α1β1γδ subtype of nicotinic acetylcholine receptors (Rattus norvegicus, UniProt P18916+P25108+P25109+P25110); assay: Binding assays at α1β1γδ subtype of nicotinic acetylcholine receptors ([3H]-α-bungarotoxin, rat muscle extract); conditions: for remaining activity at 100 µM / remaining activity at 1000 µM: read-out: control % of [3H]-α-Bgt binding
T2 construct: Native receptor, no construct: "Triton X100 (2% w/v) was added
T2 sequence (P25108 21-457): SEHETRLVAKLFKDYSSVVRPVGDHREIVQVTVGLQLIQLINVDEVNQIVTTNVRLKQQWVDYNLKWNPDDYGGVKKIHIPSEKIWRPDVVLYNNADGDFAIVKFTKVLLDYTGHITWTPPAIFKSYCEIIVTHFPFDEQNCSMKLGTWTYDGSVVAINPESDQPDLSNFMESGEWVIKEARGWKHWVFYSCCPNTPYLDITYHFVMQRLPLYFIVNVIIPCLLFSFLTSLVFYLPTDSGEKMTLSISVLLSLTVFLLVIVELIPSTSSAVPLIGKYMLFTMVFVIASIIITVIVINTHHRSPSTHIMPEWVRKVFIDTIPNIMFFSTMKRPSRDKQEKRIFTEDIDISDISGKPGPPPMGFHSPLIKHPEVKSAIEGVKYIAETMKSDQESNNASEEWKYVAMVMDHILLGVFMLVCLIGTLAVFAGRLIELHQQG
T2 sequence (P25110 22-517): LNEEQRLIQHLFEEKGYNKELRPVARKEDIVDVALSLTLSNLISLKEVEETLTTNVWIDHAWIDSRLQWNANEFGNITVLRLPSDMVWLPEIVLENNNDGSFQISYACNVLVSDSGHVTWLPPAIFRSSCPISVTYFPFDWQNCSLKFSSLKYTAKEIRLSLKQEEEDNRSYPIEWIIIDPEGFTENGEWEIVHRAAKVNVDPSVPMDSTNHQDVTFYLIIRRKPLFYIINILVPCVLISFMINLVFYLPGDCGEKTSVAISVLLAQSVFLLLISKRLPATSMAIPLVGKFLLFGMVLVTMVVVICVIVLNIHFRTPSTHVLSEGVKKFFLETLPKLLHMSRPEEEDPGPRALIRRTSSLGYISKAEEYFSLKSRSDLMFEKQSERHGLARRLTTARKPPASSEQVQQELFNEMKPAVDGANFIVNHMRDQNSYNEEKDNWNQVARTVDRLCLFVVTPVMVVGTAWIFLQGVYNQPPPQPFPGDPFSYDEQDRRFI
T2 sequence (P25109 24-501): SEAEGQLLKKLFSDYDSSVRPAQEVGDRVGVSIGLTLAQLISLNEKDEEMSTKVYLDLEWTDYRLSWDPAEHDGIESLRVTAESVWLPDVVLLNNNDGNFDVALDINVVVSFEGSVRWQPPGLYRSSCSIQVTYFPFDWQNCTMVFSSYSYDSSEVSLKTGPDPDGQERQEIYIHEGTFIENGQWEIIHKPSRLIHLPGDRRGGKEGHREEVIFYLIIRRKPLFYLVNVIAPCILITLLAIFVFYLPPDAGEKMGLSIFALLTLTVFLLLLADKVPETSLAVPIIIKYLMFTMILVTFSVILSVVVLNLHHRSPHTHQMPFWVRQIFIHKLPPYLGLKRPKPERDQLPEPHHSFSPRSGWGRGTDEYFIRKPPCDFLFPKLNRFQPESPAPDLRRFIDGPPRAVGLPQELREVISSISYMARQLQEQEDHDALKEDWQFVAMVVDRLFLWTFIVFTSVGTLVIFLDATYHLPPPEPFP
From the text: as §1
Binding Assays at α1β1γδ Subtype of Nicotinic Acetylcholine Receptors
Affinity of the compounds of the present invention to α1βγδ subtype of nicotinic acetylcholine receptors was measured by the following method, which was modified method described by Garcha H. S., Thomas P., Spivak C.
(1) Preparation of Rat Skeletal Muscles Containing α1β1γδ Subtype of Nicotinic Acetylcholine Receptors
The substantially same animals described in the Biological Experiment 1 were used.
Isolation of α1β1γδ subtype of nicotinic acetylcholine receptors was performed as follow. That is, rat posterior skeletal muscles were isolated just after sacrificed by decapitation, washed with ice-cooled saline solution and then frozen at −80° C. with liquid nitrogen and stored till using. After thawing the frozen muscles, tissue was homogenized (40% w/v) with buffer solution [2.5 mM of sodium phosphate buffer (pH:7.2), 90 mM of NaCl, 2 mM of KCl, 1 mM of EDTA, 2 mM of benzamidine, 0.1 mM of benzethonium chloride, […], 0.01% of sodium azide] in Waring blender (Waring blender 34BL97; WARING PRODUCTS DIVISION DYNAMICS CORPORATION OF AMERICA) for 60 seconds. The homogenate were centrifuged under 20,000×G for 60 minutes at 4° C. The supernatant was separated and the resulting pellet was added to the same buffer (1.5 ml/g wet weight), and homogenized under the same conditions. Triton X100 (2% w/v) was added and the mixture was stirred for 3 hours at 4° C. The centrifugation at 100,000×G for 60 minutes at 4° C. yielded the rat muscle extract as supernatant. This was stored at 4° C. for up to 4 weeks, and used for binding assays at receptors.
(2) Experiments of α1β1γδSubtype of Nicotinic Acetylcholine Receptors Binding
Receptors binding experiments were performed as follow. That is, the extract of rat muscle containing 600-900 μg of protein was added to test tubes containing test compounds and incubated for 15 minutes at 37° C. Then, to this mixture was added 1 nM of [^3H]-α-bungarotoxin (α-Bgt) and further incubated for 2 hours. The samples were isolated by vacuum filtration onto Whatman GF/B filters, which were prerinsed with 0.5% polyethylenimine just prior to sample filtration, using Brandel multi manifold cell harvester. The filters were rapidly rinsed with washing solution (10 mM of KH2PO4, 150 mM of NaCl, pH 7.2, room temperature) (5×1 ml). The filters were counted in 3 ml of clearsol I (Nacalai Tesque Inc.). Determination of nonspecific binding was incubated in the presence of 1 μM α-Bgt.
In the receptor binding experiments, said buffer solution was added for adjusting the final concentration of BSA to be 0.05%.
Analyses of the experimental results were conducted by the same way as described in the Biological Experiment 1.

[3] = biological target: T3, human α4β2 subtype of nicotinic acetylcholine receptors (Homo sapiens, UniProt P17787+P43681); assay: Agonist activities at human α4β2 subtype of nicotinic acetylcholine receptors expressed in Xenopus oocytes (membrane potential holding method); assay type: cell-based; conditions: read-out: Agonist activity: control % by response at 100 μM of the test compound
T3 construct: expressed in transfected cells; host or cells: Xenopus laevis oocytes injected with 50 ng each of α4 and β2 cRNA (pSP64 polyA vector)
T3 sequence (P43681 29-627 limits assumed): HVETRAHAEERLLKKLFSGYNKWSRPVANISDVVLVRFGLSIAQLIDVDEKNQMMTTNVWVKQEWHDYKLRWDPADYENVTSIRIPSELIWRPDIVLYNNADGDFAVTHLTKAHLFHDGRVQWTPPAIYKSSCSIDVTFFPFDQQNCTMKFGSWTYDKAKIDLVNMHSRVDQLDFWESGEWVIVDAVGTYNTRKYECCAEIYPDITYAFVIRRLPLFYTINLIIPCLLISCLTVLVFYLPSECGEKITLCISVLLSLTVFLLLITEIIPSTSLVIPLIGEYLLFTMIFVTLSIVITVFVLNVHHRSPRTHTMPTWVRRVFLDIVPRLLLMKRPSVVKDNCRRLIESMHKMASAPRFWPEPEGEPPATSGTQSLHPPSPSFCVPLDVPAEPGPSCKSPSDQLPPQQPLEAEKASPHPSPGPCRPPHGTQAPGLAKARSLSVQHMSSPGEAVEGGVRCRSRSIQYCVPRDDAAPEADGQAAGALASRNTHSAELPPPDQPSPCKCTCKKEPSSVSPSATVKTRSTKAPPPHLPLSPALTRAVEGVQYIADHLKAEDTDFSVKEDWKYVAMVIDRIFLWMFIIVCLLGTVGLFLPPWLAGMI
T3 sequence (P17787 26-502): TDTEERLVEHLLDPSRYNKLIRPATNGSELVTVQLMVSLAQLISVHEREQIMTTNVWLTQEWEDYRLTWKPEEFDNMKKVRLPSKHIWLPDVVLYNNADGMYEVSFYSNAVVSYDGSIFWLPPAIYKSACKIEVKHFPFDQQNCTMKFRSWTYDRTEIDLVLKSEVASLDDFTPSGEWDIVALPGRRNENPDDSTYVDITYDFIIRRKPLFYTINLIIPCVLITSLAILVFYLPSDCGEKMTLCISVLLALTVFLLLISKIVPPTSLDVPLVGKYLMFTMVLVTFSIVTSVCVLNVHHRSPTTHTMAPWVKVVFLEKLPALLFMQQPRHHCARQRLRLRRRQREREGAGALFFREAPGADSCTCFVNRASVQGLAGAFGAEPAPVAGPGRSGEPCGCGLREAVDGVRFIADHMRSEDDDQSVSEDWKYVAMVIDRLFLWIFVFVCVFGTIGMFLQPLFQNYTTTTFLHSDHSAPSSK
Experimental: Agonist effect in human α4β2 subtype of nicotinic acetylcholine receptors are examined by using human nicotinic acetylcholine receptors prepared in oocytes of Xenopus laevis, which is injected with cRNA from the corresponding cloning cDNA of human α4 and β2 subunits of nicotinic acetylcholine receptors, and to measure the expression of electric response by adding the test compounds to perfusion solution by means of membrane potential holding method.
Agonist Activities at Human α4β2 Subtype of Nicotinic Acetylcholine Receptors
(1) Preparation of cRNA of Human α4β2 Subtype of Nicotinic Acetylcholine Receptors
Obtained hnACh-R α4 cDNA and hnACh-R β2 cDNA were inserted to the cRNA expression vector (pSP64 polyA) having SP6 RNA promoter to construct hnACh-R α4/pSP64 polyA and hnACh-R β2/pSP64 polyA, respectively. After cutting from expression vector by restriction enzyme (EcoRI), transcription was performed by affecting SP6 RNA polymerase in the presence of cap analogues to obtain hnACh-R α4 cRNA and hnACh-R β2 cRNA, respectively.
(2) Expression of Human α4β2 Subtype Nicotinic Acetylcholine Receptors in Xenopus oocytes
Oocytes were purchased from Kitanihonseibutsukyohzai Co., Ltd., which were already enucleated from Xenopus laevis, and used in this experiment.
The oocytes were treated with collagenase (Sigma type I; 1 mg/ml) in calcium-free modified Birth's solution (88 mM of NaCl, 1 mM of KCl, 2.4 mM of NaHCO3, 0.82 mM of MgSO4, 15 mM of HEPES, pH 7.6) under gently stirring at room temperature for 90 minutes, and washed out the enzyme from the tissue. Then, oocytes were separated from ovarian follicle by tweezers, and isolated oocytes were placed in antibiotics containing modified Birth's solution (88 mM of NaCl, 1 mM of KCl, 2.4 mM of NaHCO3, 0.82 mM of MgSO4, 15 mM of HEPES, pH 7.6, and 0.1 v/v% of mixture solution containing of penicillin and streptomycin for incubation; Sigma Co.). […] In oocytes, heterogeneous quintuple [(α4)2(β2)3] was composed by translation of injected cRNAs, and ion channel receptors were constructed on cell membrane.
(3) Agonist Activities at Human α4β2 Subtype of Nicotinic Acetylcholine Receptors
Recordings of response at human α4β2 subtype of nicotinic acetylcholine receptors by means of membrane potential holding method were performed as follow. […] Test compounds were added to the perfusion solution, and recorded the peak strength of induced inward current. In order to normalize the response of test compounds, the response with acetylcholine (Ach) were recorded before and after application of the test compounds. Generally in the oocytes just after isolated, the response of intrinsic muscarinic acetylcholine receptors, which is inward electric current caused by activation of calcium dependence chloride ion channels with increase of the intracellular calcium concentration by stimulation of receptors, is observed. […] Therefore, the responses observed in oocytes with injection of hnACh-R α4 cRNA and hnACh-R β2 cRNA, i.e., the inward current induced by the intracellular influx of sodium ion according to the stimulation of receptors, would be the freshly observed responses of human α4β2 subtype nicotinic acetylcholine receptors.

T1 sequence (P09483 31-630): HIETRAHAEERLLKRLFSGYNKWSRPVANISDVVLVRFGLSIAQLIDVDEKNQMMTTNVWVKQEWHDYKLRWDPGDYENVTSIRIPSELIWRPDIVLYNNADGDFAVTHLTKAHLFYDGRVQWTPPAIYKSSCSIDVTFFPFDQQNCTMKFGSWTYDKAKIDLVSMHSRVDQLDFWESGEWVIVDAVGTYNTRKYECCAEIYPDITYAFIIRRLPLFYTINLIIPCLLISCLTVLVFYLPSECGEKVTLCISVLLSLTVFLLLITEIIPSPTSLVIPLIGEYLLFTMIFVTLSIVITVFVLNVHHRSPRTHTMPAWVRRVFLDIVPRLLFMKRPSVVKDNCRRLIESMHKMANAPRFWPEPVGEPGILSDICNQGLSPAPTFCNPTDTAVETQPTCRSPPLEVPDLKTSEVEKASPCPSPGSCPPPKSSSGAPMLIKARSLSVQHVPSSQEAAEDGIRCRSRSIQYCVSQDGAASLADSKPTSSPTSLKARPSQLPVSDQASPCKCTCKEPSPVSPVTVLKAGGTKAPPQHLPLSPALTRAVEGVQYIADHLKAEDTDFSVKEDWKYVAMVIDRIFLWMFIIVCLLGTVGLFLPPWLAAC
T1 sequence (P12390 25-500): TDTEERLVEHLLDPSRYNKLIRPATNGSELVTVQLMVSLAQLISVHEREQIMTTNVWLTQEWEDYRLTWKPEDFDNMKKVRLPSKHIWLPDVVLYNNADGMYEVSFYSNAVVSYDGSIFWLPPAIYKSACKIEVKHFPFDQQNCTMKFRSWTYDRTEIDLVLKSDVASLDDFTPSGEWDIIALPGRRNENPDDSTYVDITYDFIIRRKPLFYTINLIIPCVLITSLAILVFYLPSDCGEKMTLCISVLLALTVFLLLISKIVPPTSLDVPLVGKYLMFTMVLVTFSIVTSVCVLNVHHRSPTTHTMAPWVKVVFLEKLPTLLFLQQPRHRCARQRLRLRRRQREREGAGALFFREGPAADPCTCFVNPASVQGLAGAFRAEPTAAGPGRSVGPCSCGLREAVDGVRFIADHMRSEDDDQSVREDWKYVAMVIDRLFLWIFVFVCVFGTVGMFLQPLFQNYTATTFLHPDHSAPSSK

Row | Compound | Ki [1] [µM] | Ki [2] [µM] | remaining activity at 100 µM [2] [%] | remaining activity at 1000 µM [2] [%] | further results
1 | N=c1sccn1Cc1cccnc1 [Compound 1, 2-imino-3-(3-pyridyl)methyl-2,3-dihydrothiazole] | 0.00484 | 4.9 |  |  | Emax at 100 µM [3]: 20%
2 | Nc1nccn1Cc1c[nH]c2ncccc12 [Compound 59, 2-amino-i-(7-aza-3-indolyl)methylimidazole] | 0.0502 | 1230 |  |  | Emax at 100 µM [3]: 21%
3 | CC1CSC(=N)N1Cc1ccc(Cl)nc1 (stereo not shown) [Compound 27, 3-(6-chloro-3-pyridyl)methyl-2-imino-4-methylthiazolidine] | 0.0531 | 16.3 |  |  | 
4 | Cc1csc(=N)n1Cc1ccc(Cl)nc1 [Compound 2, 3-(6-chloro-3-pyridyl)methyl-2-imino-4-methyl-2,3-dihydrothiazole] | 0.0035 | 12.8 |  |  | 
5 | Cc1csc(=N)n1Cc1cnc(Cl)s1 [Compound 37, 3-(2-chloro-5-thiazolyl)methyl-2-imino-4-methyl-2,3-dihydrothiazole] | 0.0164 | 22.9 |  |  | 
6 | Cc1cn(Cc2ccc(Cl)nc2)c(N)n1 [Compound 53, 2-amino-1-(6-chloro-3-pyridyl)methyl-4-methylimidazole] | 0.226 |  | 98 | 56 | 
7 | Cc1csc(=N)n1Cc1cnc(Cl)c(Cl)c1 [Compound 38, 3-(5,6-dichloro-3-pyridyl)methyl-2-imino-4-methyl-2,3-dihydrothiazole] | 0.0106 | 65.2 |  |  | 
8 | N=C1SCCN1Cc1cccnc1 [Compound 4, 2-imino-3-(3-pyridyl)methylthiazolidine] | 0.0075 |  | 6 | 1 | 
9 | N=c1sccn1Cc1ccc(Cl)c(Cl)c1 [Compound 60, 3-(3,4-dichlorobenzyl)-2-imino-2,3-dihydrothiazole] | 0.0319 | 61.3 |  |  | 
10 | Nc1nccn1Cc1cncnc1 [Compound 52, 2-amino-1-(5-pyrimidyl)methylimidazole] | 0.0249 | 302 |  |  | 
11 | N=c1ncc(-c2ccccc2)cn1Cc1ccc(Cl)nc1 [Compound 46, 1-(6-chloro-3-pyridyl)methyl-2-imino-5-phenyl-1,2-dihydropyrimidine] | 0.273 |  | 88 | 66 | 
12 | Cc1cc(CN2CCSC2=N)on1 [Compound 35, 2-imino-3-(3-methyl-5-isoxazolyl)methylthiazolidine] | 0.041 |  | 12 | -3 | 
13 | N=C1SCC(c2ccccc2)N1Cc1ccc(Cl)nc1 (stereo not shown) [Compound 43, 3-(6-chloro-3-pyridyl)methyl-2-imino-4-phenylthiazolidine] | 0.0371 | 19.9 |  |  | 
14 | CCc1csc(=N)n1Cc1ccc(Cl)nc1 [Compound 21, 3-(6-chloro-3-pyridyl)methyl-4-ethyl-2-imino-2,3-dihydrothiazole] | 0.0217 |  | 57 | 19 | 
15 | N=C1SCCCN1Cc1ccc(Cl)nc1 [Compound 17, 3-(6-chloro-3-pyridyl)methyl-2-imino-3,4,5,6-tetrahydro-2H-1,3-thiazine] |  |  | 68 | 23 | Ki ([1]; rat brain membrane, [3H]-cytisine (2 nM), read-out: Affinities for receptors Ki α4β2): 0.52 µM
16 | Cc1ccc(CN2CCSC2=N)cn1 [Compound 32, 2-imino-3-(6-methyl-3-pyridyl)methylthiazolidine] | 0.01 | 14.6 |  |  | 
17 | N=c1sccn1Cc1cccc(C(F)(F)F)c1 [Compound 64, 2-imino-3-(3-trifluoromethylbenzyl)-2,3-dihydrothiazole] |  |  | 77 | 23 | control % of [3H]-cytisine binding ([1]; at 1 μM of test compound, rat brain membrane): (60%,; control % of [3H]-cytisine binding ([1]; at 10 μM of test compound, rat brain membrane): 15%)
18 | Cc1ccc(Cn2ccccc2=N)cn1 [Compound 48, 2-imino-1-(6-methyl-3-pyridyl)methyl-1,2-dihydropyridine] | 0.0479 | 56.3 |  |  | 
